Measured values from patent US12428423B2, “1H-imidazo[4,5-h]quinazoline compound as protein kinase inhibitor” (SHENGKE PHARMACEUTICALS (JIANGSU) LTD., priority 2017, dated 2025).

Columns and labels:
CDK4/cyclin D1 = CDK4/cyclin D1 (Homo sapiens (Human), UniProt P11802); assay: Biochemical kinase inhibitory assay, CDK4/cyclin D1; conditions: recombinant CDK4/cyclin D1; in the presence of 10 μM ATP
Experimental: Potency determination in the biochemical kinase inhibitory assay. Kinase activity assay and IC50 determination. […] The kinase reaction was initiated by the addition of 1 μg (1.5 μM) of recombinant retinoblastoma protein, 5 μM ATP and 10μ Ci γ-32P-ATP. The reaction was incubated at 30° C. for 20 minutes, and the reaction was stopped by the addition of 2× Laemmli sample buffer, heated at 95° C. for three minutes, and dissolved in 12% acrylamide SDS-PAGE for autoradiography. The corresponding phosphorylated substrate protein bands were quantified using a densitometer (Bio-Rad). […] The reaction took place in the presence of 10 μM ATP.

CDK6/cyclin D1 = CDK6/cyclin D1 (Homo sapiens (Human), UniProt Q00534); assay: Biochemical kinase inhibitory assay, CDK6/cyclin D1; conditions: in the presence of 10 μM ATP
Experimental: Potency determination in the biochemical kinase inhibitory assay. Kinase activity assay and IC50 determination. […] The kinase reaction was initiated by the addition of 1 μg (1.5 μM) of recombinant retinoblastoma protein, 5 μM ATP and 10μ Ci γ-32P-ATP. The reaction was incubated at 30° C. for 20 minutes, and the reaction was stopped by the addition of 2× Laemmli sample buffer, heated at 95° C. for three minutes, and dissolved in 12% acrylamide SDS-PAGE for autoradiography. The corresponding phosphorylated substrate protein bands were quantified using a densitometer (Bio-Rad). […] The compounds disclosed herein were tested in a similar manner for their inhibitory activities against CDK6/cyclin D1, CDK2/cyclin A, CDK5/cyclin P25, CDK9/cyclin Ti, CDK7/cyclin H and CDK19/cyclin C. […] The reaction took place in the presence of 10 μM ATP.

Chain of CDK4/cyclin D1 (P11802 whole entry): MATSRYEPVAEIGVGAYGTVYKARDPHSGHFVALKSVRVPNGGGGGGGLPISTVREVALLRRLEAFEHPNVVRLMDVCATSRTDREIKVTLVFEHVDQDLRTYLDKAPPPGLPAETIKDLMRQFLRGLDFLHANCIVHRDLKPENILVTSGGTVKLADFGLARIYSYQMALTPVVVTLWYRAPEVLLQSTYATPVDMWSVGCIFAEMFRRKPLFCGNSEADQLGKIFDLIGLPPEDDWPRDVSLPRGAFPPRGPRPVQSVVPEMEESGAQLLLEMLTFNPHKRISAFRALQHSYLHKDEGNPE
Chain of CDK4/cyclin D1 (P24385 whole entry partner): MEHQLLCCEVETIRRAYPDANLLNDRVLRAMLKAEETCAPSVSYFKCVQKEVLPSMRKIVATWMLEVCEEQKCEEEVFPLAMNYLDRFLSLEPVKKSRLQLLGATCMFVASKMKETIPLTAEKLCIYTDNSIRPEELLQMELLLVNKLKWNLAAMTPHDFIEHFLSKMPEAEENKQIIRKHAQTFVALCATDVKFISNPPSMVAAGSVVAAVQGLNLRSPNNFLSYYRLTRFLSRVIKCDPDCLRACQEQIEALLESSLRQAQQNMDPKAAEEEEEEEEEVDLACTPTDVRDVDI
Chain of CDK6/cyclin D1 (Q00534 whole entry): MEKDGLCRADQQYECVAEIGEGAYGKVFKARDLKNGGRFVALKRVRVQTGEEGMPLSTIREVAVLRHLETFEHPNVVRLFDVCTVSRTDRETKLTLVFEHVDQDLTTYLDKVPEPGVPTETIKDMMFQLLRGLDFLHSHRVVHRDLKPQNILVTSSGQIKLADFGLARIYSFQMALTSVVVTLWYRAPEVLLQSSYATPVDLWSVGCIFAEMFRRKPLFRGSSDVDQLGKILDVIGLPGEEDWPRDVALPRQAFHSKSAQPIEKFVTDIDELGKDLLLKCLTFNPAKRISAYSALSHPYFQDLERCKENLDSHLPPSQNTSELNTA
Chain of CDK6/cyclin D1 (P24385 whole entry partner): as the sequence (P24385 whole entry partner) above

In the case of `CC(C)n1cnc2ccc3cnc(Nc4ccc(N5CCC6(CC5)CNC6)cn4)nc3c21` [Compound I-31], the IC50 (CDK4/cyclin D1) is reported as 10 to 50 nM and the IC50 (CDK6/cyclin D1) is reported as 10 to 50 nM.

Work on `CC(C)n1cnc2ccc3cnc(Nc4ccc(N5CC6(CCNCC6)C5)cn4)nc3c21` [Compound I-32] yielded an IC50 (CDK4/cyclin D1) of 10 to 50 nM and an IC50 (CDK6/cyclin D1) of 10 to 50 nM.

For `CC(C)n1cnc2ccc3cnc(Nc4ccc(N5CCC6(CCC(=O)N6)CC5)cn4)nc3c21` [Compound I-33], the IC50 (CDK4/cyclin D1) was 10 to 50 nM and the IC50 (CDK6/cyclin D1) was 10 to 50 nM.

Work on `CC(C)n1cnc2ccc3cnc(Nc4ccc(N5CCN(CCO)CC5)cc4)nc3c21` [Compound I-34] yielded an IC50 (CDK4/cyclin D1) of 10 to 50 nM and an IC50 (CDK6/cyclin D1) of 10 to 50 nM.

`CC(C)n1cnc2ccc3cnc(Nc4ccc(N5CCNCC5)cc4F)nc3c21` [Compound I-35] was tested, and the IC50 (CDK4/cyclin D1) was 10 to 50 nM and the IC50 (CDK6/cyclin D1) was 10 to 50 nM.

`COc1cc(OCCN(C)C)ccc1Nc1ncc2ccc3ncn(C(C)C)c3c2n1` [Compound I-36] gave an IC50 (CDK4/cyclin D1) of 50 to 100 nM and an IC50 (CDK6/cyclin D1) of 50 to 100 nM.

`COc1cc(OC2CCN(C)CC2)ccc1Nc1ncc2ccc3ncn(C(C)C)c3c2n1` [Compound I-37] showed an IC50 (CDK4/cyclin D1) of 50 to 100 nM and an IC50 (CDK6/cyclin D1) of 50 to 100 nM.

Compound `CC(C)n1cnc2ccc3cnc(Nc4ccc(N5CCC(CCCO)CC5)cc4)nc3c21` [Compound I-38] has an IC50 (CDK4/cyclin D1) of 10 to 50 nM and an IC50 (CDK6/cyclin D1) of 10 to 50 nM.

`COc1ccc2cc(Nc3ncc4ccc5ncn(C(C)C)c5c4n3)ccc2n1` [Compound I-39] showed an IC50 (CDK4/cyclin D1) of 50 to 100 nM and an IC50 (CDK6/cyclin D1) of 50 to 100 nM.

`COc1cc(C(=O)NC2CCN(C)CC2)ccc1Nc1ncc2ccc3ncn(C(C)C)c3c2n1` [Compound I-40] was tested, and the IC50 (CDK4/cyclin D1) was 50 to 100 nM and the IC50 (CDK6/cyclin D1) was 50 to 100 nM.

`CC(C)N1CCN(c2ccc(Nc3ncc4ccc5ncn(C(C)C)c5c4n3)nn2)CC1` [Compound I-41] showed an IC50 (CDK4/cyclin D1) of 50 to 100 nM and an IC50 (CDK6/cyclin D1) of 50 to 100 nM.

`CCn1cnc2ccc3cnc(Nc4ccc(N5CCNCC5)cn4)nc3c21` [Compound I-42] gave an IC50 (CDK4/cyclin D1) of 10 to 50 nM and an IC50 (CDK6/cyclin D1) of 10 to 50 nM.

`CCn1cnc2ccc3cnc(Nc4ccc(N5CCN(C)CC5)cn4)nc3c21` [Compound I-43] was tested, and the IC50 (CDK4/cyclin D1) was 10 to 50 nM and the IC50 (CDK6/cyclin D1) was 10 to 50 nM.

For `CCn1cnc2ccc3cnc(Nc4ccc(N5C[C@@H](C)O[C@@H](C)C5)cn4)nc3c21` [Compound I-44], the IC50 (CDK4/cyclin D1) was 10 to 50 nM and the IC50 (CDK6/cyclin D1) was 10 to 50 nM.

For `CCn1cnc2ccc3cnc(Nc4ccc(N5CCOCC5)cn4)nc3c21` [Compound I-45], the IC50 (CDK4/cyclin D1) was 10 to 50 nM and the IC50 (CDK6/cyclin D1) was 10 to 50 nM.

In the case of `CCn1cnc2ccc3cnc(Nc4ccc(N5CCOC(C)C5)cn4)nc3c21` (stereo not drawn) [Compound I-46], the IC50 (CDK4/cyclin D1) is reported as 10 to 50 nM and the IC50 (CDK6/cyclin D1) is reported as 10 to 50 nM.

In the case of `c1cc(Nc2ncc3ccc4ncn(C5CC5)c4c3n2)ncc1N1CCNCC1` [Compound I-47], the IC50 (CDK4/cyclin D1) is reported as 2 to 10 nM and the IC50 (CDK6/cyclin D1) is reported as 2 to 10 nM.

Work on `Cc1cc(Nc2ncc3ccc4ncn(C5CC5)c4c3n2)ncc1N1CCNCC1` [Compound I-48] yielded an IC50 (CDK4/cyclin D1) of 10 to 50 nM and an IC50 (CDK6/cyclin D1) of 10 to 50 nM.

With `c1cc(Nc2ncc3ccc4ncn(C5CC5)c4c3n2)ncc1N1CCOCC1` [Compound I-49] the IC50 (CDK4/cyclin D1) was 10 to 50 nM and the IC50 (CDK6/cyclin D1) was 10 to 50 nM.

For `Cc1cc(Nc2ncc3ccc4ncn(C5CC5)c4c3n2)ncc1N1CCOCC1` [Compound I-50], the IC50 (CDK4/cyclin D1) was 10 to 50 nM and the IC50 (CDK6/cyclin D1) was 10 to 50 nM.

In the case of `Cc1nc(Nc2ncc3ccc4ncn(C5CC5)c4c3n2)ccc1N1CCOCC1` [Compound I-51], the IC50 (CDK4/cyclin D1) is reported as 10 to 50 nM and the IC50 (CDK6/cyclin D1) is reported as 10 to 50 nM.

`c1cc(Nc2ncc3ccc4ncn(C5CCC5)c4c3n2)ncc1N1CCNCC1` [Compound I-52] was tested, and the IC50 (CDK4/cyclin D1) was 10 to 50 nM and the IC50 (CDK6/cyclin D1) was 10 to 50 nM.

Work on `Cc1cc(Nc2ncc3ccc4ncn(C5CCC5)c4c3n2)ncc1N1CCNCC1` [Compound I-53] yielded an IC50 (CDK4/cyclin D1) of 10 to 50 nM and an IC50 (CDK6/cyclin D1) of 10 to 50 nM.

With `Cc1nc(Nc2ncc3ccc4ncn(C5CCC5)c4c3n2)ccc1N1CCNCC1` [Compound I-54] the IC50 (CDK4/cyclin D1) was 10 to 50 nM and the IC50 (CDK6/cyclin D1) was 10 to 50 nM.

`c1cc(Nc2ncc3ccc4ncn(C5CCC5)c4c3n2)ncc1N1CCOCC1` [Compound I-55] was tested, and the IC50 (CDK4/cyclin D1) was 10 to 50 nM and the IC50 (CDK6/cyclin D1) was 10 to 50 nM.

For `Cc1cc(Nc2ncc3ccc4ncn(C5CCC5)c4c3n2)ncc1N1CCOCC1` [Compound I-56], the IC50 (CDK4/cyclin D1) was 10 to 50 nM and the IC50 (CDK6/cyclin D1) was 10 to 50 nM.

`c1cc(Nc2ncc3ccc4ncn(C5CCCC5)c4c3n2)ncc1N1CCNCC1` [Compound I-57] was tested, and the IC50 (CDK4/cyclin D1) was < 2 nM and the IC50 (CDK6/cyclin D1) was < 2 nM.

`Cc1cc(Nc2ncc3ccc4ncn(C5CCCC5)c4c3n2)ncc1N1CCNCC1` [Compound I-58] showed an IC50 (CDK4/cyclin D1) of 2 to 10 nM and an IC50 (CDK6/cyclin D1) of 2 to 10 nM.

With `Cc1nc(Nc2ncc3ccc4ncn(C5CCCC5)c4c3n2)ccc1N1CCNCC1` [Compound I-59] the IC50 (CDK4/cyclin D1) was 2 to 10 nM and the IC50 (CDK6/cyclin D1) was 2 to 10 nM.

`c1cc(Nc2ncc3ccc4ncn(C5CCCC5)c4c3n2)ncc1N1CCOCC1` [Compound I-60] showed an IC50 (CDK4/cyclin D1) of 2 to 10 nM and an IC50 (CDK6/cyclin D1) of 2 to 10 nM.
